Experimental data as given in patent US20170057955A1, “Pyridopyrimidinone Compounds for Modulating the Catalytic Activity of Histone Lysine Demethylases (KDMs)” (Dong-A Socio Holdings Co., Ltd., priority 2015, published 2017).

These compounds were tested against T1, Recombinant human JARID1B/KDM5B (Homo sapiens, UniProt Q9UGL1) (assay: LANCE Ultra TR-FRET JARID1B (KDM5B) demethylase inhibition assay). Conditions: 0.1 uM of test-compounds, FLAG-JARID1B, 500 nM biotinylated H3K4me3 peptide substrate, 30 min at room temperature.
T1 construct: purchased Active Motif 31432; host or cells: Sf9 insect cells
T1 sequence (Q9UGL1 whole entry): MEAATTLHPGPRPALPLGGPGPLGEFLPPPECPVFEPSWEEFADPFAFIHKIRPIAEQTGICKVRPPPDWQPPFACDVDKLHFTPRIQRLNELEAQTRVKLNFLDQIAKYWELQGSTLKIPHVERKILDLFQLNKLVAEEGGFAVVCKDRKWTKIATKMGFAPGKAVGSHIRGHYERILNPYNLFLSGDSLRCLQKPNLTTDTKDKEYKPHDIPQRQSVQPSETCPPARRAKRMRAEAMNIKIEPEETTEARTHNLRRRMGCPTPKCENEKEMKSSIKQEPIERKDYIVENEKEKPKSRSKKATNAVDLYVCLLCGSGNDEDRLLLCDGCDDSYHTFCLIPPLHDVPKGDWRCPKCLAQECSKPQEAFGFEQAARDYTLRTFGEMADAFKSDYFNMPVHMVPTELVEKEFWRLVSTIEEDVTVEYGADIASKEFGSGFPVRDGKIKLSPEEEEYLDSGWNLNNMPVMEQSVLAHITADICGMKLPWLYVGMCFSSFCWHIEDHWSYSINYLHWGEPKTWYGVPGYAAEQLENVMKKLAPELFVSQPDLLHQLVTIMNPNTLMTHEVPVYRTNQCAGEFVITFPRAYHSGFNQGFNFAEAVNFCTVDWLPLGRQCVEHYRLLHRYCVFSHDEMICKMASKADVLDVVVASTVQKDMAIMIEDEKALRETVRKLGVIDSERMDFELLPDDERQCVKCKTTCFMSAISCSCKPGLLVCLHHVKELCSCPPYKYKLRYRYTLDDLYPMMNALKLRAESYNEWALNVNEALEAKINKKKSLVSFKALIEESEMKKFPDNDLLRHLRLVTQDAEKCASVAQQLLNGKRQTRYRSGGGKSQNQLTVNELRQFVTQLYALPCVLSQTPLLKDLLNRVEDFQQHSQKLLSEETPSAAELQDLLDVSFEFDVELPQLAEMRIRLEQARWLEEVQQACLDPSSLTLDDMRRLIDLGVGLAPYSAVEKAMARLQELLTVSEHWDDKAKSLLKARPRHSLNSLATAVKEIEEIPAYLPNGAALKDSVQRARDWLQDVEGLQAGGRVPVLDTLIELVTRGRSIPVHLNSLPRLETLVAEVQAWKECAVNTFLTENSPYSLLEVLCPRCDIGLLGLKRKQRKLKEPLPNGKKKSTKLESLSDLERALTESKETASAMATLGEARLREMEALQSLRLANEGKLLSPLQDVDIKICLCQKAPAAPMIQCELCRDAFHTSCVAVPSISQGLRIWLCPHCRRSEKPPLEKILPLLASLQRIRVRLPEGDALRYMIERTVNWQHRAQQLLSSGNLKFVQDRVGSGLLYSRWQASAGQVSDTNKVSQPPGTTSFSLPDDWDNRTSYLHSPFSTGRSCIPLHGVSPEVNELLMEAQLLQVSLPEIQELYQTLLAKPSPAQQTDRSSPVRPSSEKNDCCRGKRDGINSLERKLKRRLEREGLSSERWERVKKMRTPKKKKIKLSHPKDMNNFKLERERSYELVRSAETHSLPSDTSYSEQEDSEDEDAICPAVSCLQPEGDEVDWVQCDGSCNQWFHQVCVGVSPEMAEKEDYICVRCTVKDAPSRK
Type: biochemical
Source text: FLAG-tagged JARID1B (also known as KDM5B) protein was screened against 49 compounds. For this compound screening, LANCE Ultra time-resolved fluorescence resonance energy transfer (TR-FRET) assay was employed using a europoium (Eu)-labeled antibody that can specifically recognize mono- or dimethylated peptides (H3K4me2/1) and ULight-streptavidin (ULight-SA), a small molecule fluorescent dye. When irradiated at 340 nm, the energy from the Eu donor is transferred to the ULight acceptor dye which, in turn, emits light primarily at 665 nm. The ratio between the intensity of primary emission at 665 nm and that of secondary emission at […] was used to quantify the level of lysine methylation. As JARID1B removes more methyl moieties from tri-methylated substrate peptides (H3K4me3), the ratio increases until the enzyme reaction is terminated. In case, therefore, the compounds disrupt the enzymatic activity completely, the ratio becomes equal to a background value.
Recombinant human JARID1B/KDM5B (accession number NP_006609) of molecular weight 179.9 KDa was expressed in Sf9 insect cells and contains an N-terminal FLAG tag. The enzyme was obtained from Active Motif (Catalog No. 31432). The tri-methylated histone substrate peptide of purity greater than 95% was a synthetic peptide in which the first 21 amino acids correspond to the human histone H3 sequence with three extra amino acids and a biotin motif (GGK-biotin) linked to the C-terminus [sequence: ART-K(Me3)-QTARKSTGGKAPRKQLA-GGK-biotin-OH], (AnaSpec, Fremont, Calif. Catalog. No. ANA-1413). The reference inhibitor compound tranylcypromine (or trans-2-phenylcyclopropylamine hydrochloride, also known as, 2-PCPA) was purchased from Sigma (St. Louis, Mo. Cat. no. P8511). ULight-labeled streptavidin (ULight-SA, Catalog no. TRF0102), Eu-W1024-labeled anti-methyl-Histone H3 Lysine 4 (H3K4me1-2) Antibody (Catalog no. TRF0402), and LANCE detection buffer 10× (Catalog no. CR97-100) were obtained from PerkinElmer (Montreal, Quebec, Canada). The TR-FRET experiments were carried out in white, low-volume 384-wellplates purchased from PerkinElmer (ProxiPlate_-384 Plus, Catalog no. 6008280).
The TR-FRET signal was measured in the presence both of the bio-H3K4me3 peptide and FLAG-JARID1B by detecting any H3K4me2/1 peptide produced in the assay system. Assays using only the bio-H3K4me2 peptide were served as a positive control. Robust enzymatic progressions were observed by using JARID1B at concentrations ranging from 10 to 30 nM. In a typical TR-FRET experiment, JARID1B was pre-incubated with or without 0.1 uM of test-compounds (containing 1% DMSO final) for 5 min. The enzymatic reactions were initiated by the addition of 500 nM biotinylated H3K4me3 peptide substrate plus 500 uM of 2-OG 25 uM Fe(II) and 2 mM ascorbate. The reaction buffer also contained 50 mM Hepes (pH7.5), 0.01% (v/v) Tween 20, and 50 mM NaCl. The reaction mixture was incubated for 30 min at room temperature before reading on an EnVision plate reader (PerkinElmer, Waltham, Mass.).

O=c1[nH]c(COc2ccc(F)c(Cl)c2)nc2c(-c3csc(NCC4CCN(CCO)CC4)n3)nccc12 [Compound 100, 2-((3-chloro-4-fluorophenoxy)methyl)-8-(2-(((1-(2-hydroxyethyl)piperidin-4-yl)methyl)amino)thiazol-4-yl)pyrido[3,4-d]pyrimidin-4(3H)-one] and O=c1[nH]c(COc2ccc(F)c(Cl)c2)nc2c(-c3csc(NCCN4CCOCC4)n3)nccc12 [Compound 82, 2-((3-chloro-4-fluorophenoxy)methyl)-8-(2-((2-morpholinoethyl)amino)thiazol-4-yl)pyrido[3,4-d]pyrimidin-4(3H)-one] cannot be ordered by inhibition at 0.1 µM: 20 to 50% for the first, no less than 50% for the second.

COCCNc1nc(-c2nccc3c(=O)[nH]cnc23)cs1 [Compound 42, 8-(2-((2-methoxyethyl)amino)thiazol-4-yl)pyrido[3,4-d]pyrimidin-4(3H)-one] and CN1CCN(CCNc2nc(-c3nccc4c(=O)[nH]cnc34)cs2)CC1 [Compound 45, 8-(2-((2-(4-methylpiperazin-1-yl)ethyl)amino)thiazol-4-yl)pyrido[3,4-d]pyrimidin-4(3H)-one] cannot be ordered by inhibition at 0.1 µM: no less than 50% for the first, 20 to 50% for the second.

Compared with O=c1[nH]c(COc2ccc(F)c(Cl)c2)nc2c(-c3csc(NCC(O)c4ccncc4)n3)nccc12 (centres unmarked) [Compound 111, 2-((3-chloro-4-fluorophenoxy)methyl)-8-(2-((2-hydroxy-2-(pyridin-4-yl)ethyl)amino)thiazol-4-yl)pyrido[3,4-d]pyrimidin-4(3H)-one], Cc1ccc(CCNc2nc(-c3nccc4c(=O)[nH]c(COc5ccc(F)c(Cl)c5)nc34)cs2)cc1C [Compound 112, 2-((3-chloro-4-fluorophenoxy)methyl)-8-(2-((3,4-dimethylphenethyl)amino)thiazol-4-yl)pyrido[3,4-d]pyrimidin-4(3H)-one] is lower in inhibition at 0.1 µM: 20 to 50% for the first, less than 20% for the second.

Compared with O=c1[nH]c(COc2ccc(F)c(Cl)c2)nc2c(-c3ccc(N4CCOCC4)nc3)nccc12 [Compound 78, 2-((3-chloro-4-fluorophenoxy)methyl)-8-(6-morpholinopyridin-3-yl)pyrido[3,4-d]pyrimidin-4(3H)-one], Cn1cnc(-c2nccc3c(=O)[nH]c(COc4ccc(F)c(Cl)c4)nc23)c1 [Compound 77, 2-((3-chloro-4-fluorophenoxy)methyl)-8-(1-methyl-1H-imidazol-4-yl)pyrido[3,4-d]pyrimidin-4(3H)-one] is higher in inhibition at 0.1 µM: less than 20% for the first, 20 to 50% for the second.

Nc1nn(-c2nccc3c(=O)[nH]cnc23)cc1-c1ccc(C(=O)N2CCOCC2)cc1 [Compound 21, 8-(3-amino-4-(4-(morpholine-4-carbonyl)phenyl)-1H-pyrazol-1-yl)pyrido[3,4-d]pyrimidin-4(3H)-one] and CN1CCN(Cc2ccc(-c3cn(-c4nccc5c(=O)[nH]cnc45)nc3N)cc2)CC1 [Compound 33, 8-(3-amino-4-(4-((4-methylpiperazin-1-yl)methyl)phenyl)-1H-pyrazol-1-yl)pyrido[3,4-d]pyrimidin-4(3H)-one] cannot be ordered by inhibition at 0.1 µM: no less than 50% for the first, 20 to 50% for the second.

O=c1[nH]cnc2c(-n3cc(-c4ccccc4Oc4ccccc4)cn3)nccc12 [Compound 10, 8-(4-(2-phenoxyphenyl)-1H-pyrazol-1-yl)pyrido[3,4-d]pyrimidin-4(3H)-one] and O=c1[nH]cnc2c(-n3cc(-c4ccccc4CO)cn3)nccc12 [Compound 9, 8-(4-(2-(hydroxymethyl)phenyl)-1H-pyrazol-1-yl)pyrido[3,4-d]pyrimidin-4(3H)-one] cannot be ordered by inhibition at 0.1 µM: less than 20% for the first, less than 20% for the second.

O=c1[nH]cnc2c(-n3cc(-c4cccc(CO)c4)cn3)nccc12 [Compound 3, 8-(4-(3-(hydroxymethyl)phenyl)-1H-pyrazol-1-yl)pyrido[3,4-d]pyrimidin-4(3H)-one] and O=c1[nH]cnc2c(-n3cc(-c4ccc(F)cc4)cn3)nccc12 [Compound 4, 8-(4-(4-fluorophenyl)-1H-pyrazol-1-yl)pyrido[3,4-d]pyrimidin-4(3H)-one] cannot be ordered by inhibition at 0.1 µM: less than 20% for the first, less than 20% for the second.

O=c1[nH]c(COCc2ccccc2)nc2c(-c3csc(NCC4CCN(CCO)CC4)n3)nccc12 [Compound 153, 2-((benzyloxy)methyl)-8-(2-(((1-(2-hydroxyethyl)piperidin-4-yl)methyl)amino)thiazol-4-yl)pyrido[3,4-d]pyrimidin-4(3H)-one] and CN1CCCC1CCNc1nc(-c2nccc3c(=O)[nH]c(COCc4ccccc4)nc23)cs1 (centres unmarked) [Compound 152, 2-((benzyloxy)methyl)-8-(2-((2-(1-methylpyrrolidin-2-yl)ethyl)amino)thiazol-4-yl)pyrido[3,4-d]pyrimidin-4(3H)-one] cannot be ordered by inhibition at 0.1 µM: less than 20% for the first, less than 20% for the second.

O=c1[nH]cnc2c(-c3cnn(Cc4ccccc4)c3)nccc12 [Compound 64, 8-(1-benzyl-1H-pyrazol-4-yl)pyrido[3,4-d]pyrimidin-4(3H)-one] and O=c1[nH]cnc2c(-c3csc(NC4CCN(Cc5ccccc5)CC4)n3)nccc12 [Compound 61, 8-(2-((1-benzylpiperidin-4-yl)amino)thiazol-4-yl)pyrido[3,4-d]pyrimidin-4(3H)-one] fall in the same range of inhibition at 0.1 µM: 20 to 50% for the first, 20 to 50% for the second.

Compared with O=c1[nH]c(COc2ccc(F)c(Cl)c2)nc2c(-c3nccs3)nccc12 [Compound 74, 2-((3-chloro-4-fluorophenoxy)methyl)-8-(thiazol-2-yl)pyrido[3,4-d]pyrimidin-4(3H)-one], Cc1nc(-c2nccc3c(=O)[nH]c(COc4ccc(F)c(Cl)c4)nc23)cs1 [Compound 103, 2-((3-chloro-4-fluorophenoxy)methyl)-8-(2-methylthiazol-4-yl)pyrido[3,4-d]pyrimidin-4(3H)-one] is lower in inhibition at 0.1 µM: 20 to 50% for the first, less than 20% for the second.

CC(C)(c1ccccc1)c1ccc(OCc2nc3c(-c4csc(NCCO)n4)nccc3c(=O)[nH]2)cc1 [Compound 158, 8-(2-((2-hydroxyethyl)amino)thiazol-4-yl)-2-((4-(2-phenylpropan-2-yl)phenoxy)methyl)pyrido [3,4-d]pyrimidin-4(3H)-one] and O=c1[nH]c(Cc2ccccc2)nc2c(-c3csc(NCCO)n3)nccc12 [Compound 139, 2-benzyl-8-(2-((2-hydroxyethyl)amino)thiazol-4-yl)pyrido[3,4-d]pyrimidin-4(3H)-one] cannot be ordered by inhibition at 0.1 µM: less than 20% for the first, less than 20% for the second.

Compared with CC(C)c1nc2c(-c3csc(NCCO)n3)nccc2c(=O)[nH]1 [Compound 138, 8-(2-((2-hydroxyethyl)amino)thiazol-4-yl)-2-isopropylpyrido[3,4-d]pyrimidin-4(3H)-one], CN(C)CCNc1nc(-c2nccc3c(=O)[nH]c(COc4ccc(F)cc4)nc23)cs1 [Compound 126, 8-(2-((2-(dimethylamino)ethyl)amino)thiazol-4-yl)-2-((4-fluorophenoxy)methyl) pyrido[3,4-d]pyrimidin-4(3H)-one] is higher in inhibition at 0.1 µM: less than 20% for the first, no less than 50% for the second.

First: CN(C)CCNc1nc(-c2nccc3c(=O)[nH]c(COCc4ccccc4)nc23)cs1 [Compound 148, 2-((benzyloxy)methyl)-8-(2-((2-(dimethylamino)ethyl)amino)thiazol-4-yl)pyrido[3,4-d]pyrimidin-4(3H)-one]
Second: Nc1nc(-c2nccc3c(=O)[nH]c(CCCc4ccccc4)nc23)cs1 [Compound 166, 8-(2-aminothiazol-4-yl)-2-(3-phenylpropyl)pyrido[3,4-d]pyrimidin-4(3H)-one]
The inhibition at 0.1 µM of the first is lower: less than 20% for the first, 20 to 50% for the second.

O=c1[nH]cnc2c(-c3csc(NCC4CCNCC4)n3)nccc12 [Compound 56, 8-(2-((piperidin-4-ylmethyl)amino)thiazol-4-yl)pyrido[3,4-d]pyrimidin-4(3H)-one] and O=c1[nH]c(COc2ccc(F)c(Cl)c2)nc2c(-c3csc(NC4CCNCC4)n3)nccc12 [Compound 93, 2-((3-chloro-4-fluorophenoxy)methyl)-8-(2-(piperidin-4-ylamino)thiazol-4-yl)pyrido[3,4-d]pyrimidin-4(3H)-one] cannot be ordered by inhibition at 0.1 µM: no less than 50% for the first, no less than 50% for the second.

In the case of Nc1nn(-c2nccc3c(=O)[nH]cnc23)cc1-c1ccc(CCCO)cc1 [Compound 19, 8-(3-amino-4-(4-(3-hydroxypropyl)phenyl)-1H-pyrazol-1-yl)pyrido[3,4-d]pyrimidin-4(3H)-one], the inhibition at 0.1 µM was 20 to 50%.
